What was measured:
PI3K alpha = molecular target: T1, PI3K alpha (Homo sapiens, UniProt P42336); assay: PI3K alpha kinase assay (Kinase-Glo luminescence); type: biochemical
T1 construct: p85(iSH2) fusion partner (see partner chain) (N); His tag (C); made in house; host or cells: baculovirus; Tn5 (Trichoplusia ni) or TiniPro insect cells
Summary of the method: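 Read-out: Kinase-Glo luminescence of ATP left after 60 min at room temperature. Conditions: 10 nM PI3Kα (EMV B1075), 1 μM ATP, 10 μg/mL PI substrate, Tris pH 7.5 buffer with MgCl2, NaCl, CHAPS and DTT. IC50s fitted with a four-parameter logistic model.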

PI3K beta = molecular target: T2, PI3K beta (Homo sapiens, UniProt P42338); assay: PI3K beta kinase assay (Kinase-Glo luminescence); type: biochemical
T2 construct: for the full-length p110-b subunit are generated and fused by overlapping PCR; p85(iSH2) fusion partner (see partner chain) (N); His tag (C); made in house; host or cells: baculovirus; Tn5 (Trichoplusia ni) or TiniPro insect cells
Summary of the method: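 Enzyme: BV949 p85(iSH2)-Gly linker-p110β FL-His, 25 nM. Substrate: PI 10 μg/mL. ATP: 1 μM, added to start. Buffer: Tris pH 7.5 10 mM, MgCl2 3 mM, NaCl 50 mM, CHAPS 0.05%, DTT 1 mM. RT, 60 min. Readout: Kinase-Glo. IC50 by 4-parameter fit.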

PI3K delta = molecular target: T3, PI3K delta (Homo sapiens, UniProt O00329); assay: PI3K delta kinase assay (Kinase-Glo luminescence); type: biochemical
T3 construct: for the full-length p110-d subunit are generated and fused by overlapping PCR; p85(iSH2) fusion partner (see partner chain) (N); His tag (C); made in house; host or cells: baculovirus; Tn5 (Trichoplusia ni) or TiniPro insect cells
Summary of the method: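 Kinase-Glo luminescence read-out of ATP remaining after 60 min at RT. Enzyme: 10 nM BV1060 (p85 iSH2–p110δ fusion, His-tagged); substrate 10 μg/mL PI, ATP 1 μM final; Tris pH 7.5 buffer with MgCl2, NaCl, CHAPS, DTT. IC50 from 4-parameter logistic fit over 8 concentrations.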

[1] = system: PKB Ser473 phosphorylation in Rat1-myr-HA-p110 alpha cells; assay: Reverse protein array assay, PKB Ser473 phosphorylation in Rat1-myr-p110 alpha cells; type: cell-based; conditions: 0.5 h, pAkt Ser473, 30 minutes compound incubation, read-out: p-PKB IC50
Summary of the method: (§1)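 Measured: PKB Ser473 phosphorylation by reverse protein array in Rat1 cells expressing myr-HA-p110 alpha, beta or delta, after 30 min compound treatment at 37 °C with 0.2% DMSO vehicle.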

[2] = system: PKB Ser473 phosphorylation in Rat1-myr-HA-p110 beta cells; assay: Reverse protein array assay, PKB Ser473 phosphorylation in Rat1-myr-p110 beta cells; type: cell-based; conditions: 0.5 h, pAkt Ser473, 30 minutes incubation, read-out: p-PKB IC50
Summary of the method: as §1

[3] = system: PKB Ser473 phosphorylation in Rat1-myr-HA-p110 delta cells; assay: Reverse protein array assay, PKB Ser473 phosphorylation in Rat1-myr-p110 delta cells; type: cell-based; conditions: read-out: p-PKB IC50
Summary of the method: as §1

T1 sequence (P42336 with tags, fused parts or gaps limits assumed): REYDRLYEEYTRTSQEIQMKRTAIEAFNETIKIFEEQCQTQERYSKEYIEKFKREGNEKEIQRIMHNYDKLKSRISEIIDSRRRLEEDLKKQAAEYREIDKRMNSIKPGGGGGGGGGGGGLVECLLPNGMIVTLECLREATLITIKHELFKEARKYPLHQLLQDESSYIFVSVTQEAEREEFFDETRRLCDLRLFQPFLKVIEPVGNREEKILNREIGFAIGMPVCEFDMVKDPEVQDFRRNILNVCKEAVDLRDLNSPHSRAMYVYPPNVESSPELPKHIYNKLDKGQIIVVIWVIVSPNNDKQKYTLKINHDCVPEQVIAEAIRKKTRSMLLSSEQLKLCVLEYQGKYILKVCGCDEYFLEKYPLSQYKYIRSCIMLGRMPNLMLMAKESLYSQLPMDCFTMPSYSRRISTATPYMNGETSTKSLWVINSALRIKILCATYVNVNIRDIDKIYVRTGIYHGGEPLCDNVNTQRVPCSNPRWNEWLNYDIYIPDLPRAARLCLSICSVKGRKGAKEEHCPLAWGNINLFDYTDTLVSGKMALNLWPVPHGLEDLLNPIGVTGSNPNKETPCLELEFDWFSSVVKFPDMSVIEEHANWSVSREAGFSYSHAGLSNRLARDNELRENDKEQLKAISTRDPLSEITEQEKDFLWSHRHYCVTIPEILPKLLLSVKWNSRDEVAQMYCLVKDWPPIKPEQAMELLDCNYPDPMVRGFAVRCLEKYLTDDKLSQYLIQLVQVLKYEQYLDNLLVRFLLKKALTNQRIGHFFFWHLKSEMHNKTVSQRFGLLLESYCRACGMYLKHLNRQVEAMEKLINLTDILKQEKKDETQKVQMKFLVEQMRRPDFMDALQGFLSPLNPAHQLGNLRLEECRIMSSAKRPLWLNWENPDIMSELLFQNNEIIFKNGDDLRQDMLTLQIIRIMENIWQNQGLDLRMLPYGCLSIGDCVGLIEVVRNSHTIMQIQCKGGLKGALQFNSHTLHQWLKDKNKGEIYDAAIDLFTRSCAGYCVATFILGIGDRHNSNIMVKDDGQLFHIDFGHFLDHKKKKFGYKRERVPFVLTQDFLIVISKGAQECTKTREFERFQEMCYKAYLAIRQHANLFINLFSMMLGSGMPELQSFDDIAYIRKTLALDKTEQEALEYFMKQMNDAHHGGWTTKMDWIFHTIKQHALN
T2 sequence (P42338 with tags, fused parts or gaps limits assumed): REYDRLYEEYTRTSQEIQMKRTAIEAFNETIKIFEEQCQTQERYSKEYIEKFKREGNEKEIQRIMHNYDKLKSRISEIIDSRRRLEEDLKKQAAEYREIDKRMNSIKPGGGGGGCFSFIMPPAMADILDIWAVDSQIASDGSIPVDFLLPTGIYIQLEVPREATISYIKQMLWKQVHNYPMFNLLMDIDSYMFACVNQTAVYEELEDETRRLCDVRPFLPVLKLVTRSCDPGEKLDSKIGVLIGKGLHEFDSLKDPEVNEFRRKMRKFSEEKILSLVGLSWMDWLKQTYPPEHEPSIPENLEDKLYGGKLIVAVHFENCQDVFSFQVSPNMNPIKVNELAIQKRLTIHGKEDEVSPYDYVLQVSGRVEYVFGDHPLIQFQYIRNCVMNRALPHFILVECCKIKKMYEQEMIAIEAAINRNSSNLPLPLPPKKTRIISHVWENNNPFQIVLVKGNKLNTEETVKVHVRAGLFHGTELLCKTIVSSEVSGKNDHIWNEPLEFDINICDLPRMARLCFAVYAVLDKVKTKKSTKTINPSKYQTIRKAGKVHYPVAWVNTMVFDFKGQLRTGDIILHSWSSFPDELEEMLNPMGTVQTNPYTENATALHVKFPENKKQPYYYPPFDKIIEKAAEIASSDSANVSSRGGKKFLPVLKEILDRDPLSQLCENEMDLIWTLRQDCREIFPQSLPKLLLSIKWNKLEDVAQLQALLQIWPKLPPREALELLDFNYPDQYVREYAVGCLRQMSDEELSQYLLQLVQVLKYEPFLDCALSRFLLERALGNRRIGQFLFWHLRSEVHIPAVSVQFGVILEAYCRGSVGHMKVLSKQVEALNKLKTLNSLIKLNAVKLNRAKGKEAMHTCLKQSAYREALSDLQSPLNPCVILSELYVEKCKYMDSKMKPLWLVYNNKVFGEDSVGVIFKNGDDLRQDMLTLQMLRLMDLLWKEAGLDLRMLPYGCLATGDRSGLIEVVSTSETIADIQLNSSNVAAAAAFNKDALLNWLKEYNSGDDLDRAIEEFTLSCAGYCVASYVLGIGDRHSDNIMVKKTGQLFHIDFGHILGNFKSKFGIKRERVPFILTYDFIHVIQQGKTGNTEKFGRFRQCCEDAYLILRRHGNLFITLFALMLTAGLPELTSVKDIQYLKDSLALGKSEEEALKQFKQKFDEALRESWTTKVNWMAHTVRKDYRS
T3 sequence (O00329 with tags, fused parts or gaps limits assumed): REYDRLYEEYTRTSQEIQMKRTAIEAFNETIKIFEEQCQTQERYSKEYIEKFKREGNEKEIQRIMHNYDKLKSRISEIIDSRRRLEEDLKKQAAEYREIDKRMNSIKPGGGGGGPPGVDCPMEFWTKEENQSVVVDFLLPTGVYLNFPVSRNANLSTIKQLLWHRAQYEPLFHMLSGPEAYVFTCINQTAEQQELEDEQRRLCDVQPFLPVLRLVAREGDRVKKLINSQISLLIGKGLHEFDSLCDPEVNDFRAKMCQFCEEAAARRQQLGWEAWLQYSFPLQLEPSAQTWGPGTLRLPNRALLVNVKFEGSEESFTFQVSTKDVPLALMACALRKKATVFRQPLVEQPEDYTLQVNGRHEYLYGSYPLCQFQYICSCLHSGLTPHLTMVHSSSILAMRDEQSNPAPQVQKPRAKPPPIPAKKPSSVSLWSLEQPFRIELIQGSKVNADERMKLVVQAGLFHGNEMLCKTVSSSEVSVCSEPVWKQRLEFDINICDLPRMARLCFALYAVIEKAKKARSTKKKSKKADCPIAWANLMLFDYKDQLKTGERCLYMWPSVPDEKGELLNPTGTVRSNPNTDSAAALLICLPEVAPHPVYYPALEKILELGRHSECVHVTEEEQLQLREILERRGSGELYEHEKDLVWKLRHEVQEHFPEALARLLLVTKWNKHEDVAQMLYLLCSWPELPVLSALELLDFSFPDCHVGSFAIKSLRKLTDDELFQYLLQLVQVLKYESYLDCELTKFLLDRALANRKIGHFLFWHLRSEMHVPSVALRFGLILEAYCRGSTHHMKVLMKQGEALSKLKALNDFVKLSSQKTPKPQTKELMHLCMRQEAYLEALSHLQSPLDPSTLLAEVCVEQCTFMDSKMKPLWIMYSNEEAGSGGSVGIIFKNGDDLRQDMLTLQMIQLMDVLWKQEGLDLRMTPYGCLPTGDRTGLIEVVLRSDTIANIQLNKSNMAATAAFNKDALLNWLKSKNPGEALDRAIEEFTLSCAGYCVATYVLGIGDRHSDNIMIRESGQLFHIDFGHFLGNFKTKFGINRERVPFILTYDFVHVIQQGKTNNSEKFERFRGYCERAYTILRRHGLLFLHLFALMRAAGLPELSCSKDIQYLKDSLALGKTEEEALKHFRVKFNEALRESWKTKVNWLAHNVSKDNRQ

SMILES: CCNc1cc(-c2ccc3ncc4c(c3c2)n(-c2cn(C(C)C)nc2C)c(=O)n4C)cnc1CO [Example 155.3, 8-(5-Ethylamino-6-hydroxymethyl-pyridin-3-yl)-1-(1-isopropyl-3-methyl-1H-pyrazol-4-yl)-3-methyl-1,3-dihydro-imidazo[4,5-c]quinolin-2-one]
- IC50 (PI3K alpha): 30 nM
- IC50 (PI3K beta): 46 nM
- IC50 (PI3K delta): 10 nM
- IC50 [1]: < 5 nM
- IC50 [2]: < 5 nM
- IC50 [3]: 9 nM

SMILES: CCNc1cc(-c2ccc3ncc4c(c3c2)n(-c2c(C)nn(C)c2C)c(=O)n4C)cnc1CO [Example 155.4, 8-(5-Ethylamino-6-hydroxymethyl-pyridin-3-yl)-3-methyl-1-(1,3,5-trimethyl-1H-pyrazol-4-yl)-1,3-dihydro-imidazo[4,5-c]quinolin-2-one]
- IC50 (PI3K alpha): 125 nM
- IC50 (PI3K beta): 55 nM
- IC50 (PI3K delta): 11 nM
- IC50 [1]: 88 nM
- IC50 [2]: 47 nM
- IC50 [3]: 59 nM

SMILES: CCNc1cc(-c2ccc3ncc4c(c3c2)n(-c2cn(CC)nc2C)c(=O)n4C)cnc1COC [Example 157, 8-(5-Ethylamino-6-methoxymethyl-pyridin-3-yl)-1-(1-ethyl-3-methyl-1H-pyrazol-4-yl)-3-methyl-1,3-dihydro-imidazo[4,5-c]quinolin-2-one]
- IC50 (PI3K alpha): 7 nM
- IC50 (PI3K beta): 28 nM
- IC50 (PI3K delta): 9 nM
- IC50 [1]: < 5 nM
- IC50 [2]: 8 nM
- IC50 [3]: 12 nM

SMILES: CNc1cc(-c2ccc3ncc4c(c3c2)n(-c2cn(C)nc2C)c(=O)n4C)cnc1COC [Example 159, 1-(1,3-Dimethyl-1H-pyrazol-4-yl)-8-(6-methoxymethyl-5-methylamino-pyridin-3-yl)-3-methyl-1,3-dihydro-imidazo[4,5-c]quinolin-2-one]
- IC50 (PI3K alpha): 34 nM
- IC50 (PI3K beta): 100 nM
- IC50 (PI3K delta): 25 nM
- IC50 [1]: 7 nM
- IC50 [2]: 8 nM
- IC50 [3]: 24 nM

SMILES: CCNc1cc(-c2ccc3ncc4c(c3c2)n(-c2cn(C)nc2C)c(=O)n4C)cnc1CC [Example 161, 1-(1,3-Dimethyl-1H-pyrazol-4-yl)-8-(6-ethyl-5-ethylamino-pyridin-3-yl)-3-methyl-1,3-dihydro-imidazo[4,5-c]quinolin-2-one]
- IC50 (PI3K alpha): 9 nM
- IC50 (PI3K beta): 18 nM
- IC50 (PI3K delta): 8 nM
- IC50 [1]: < 5 nM
- IC50 [2]: < 5 nM
- IC50 [3]: < 5 nM

SMILES: CCOCc1cc(-c2ccc3ncc4c(c3c2)n(-c2cn(C)nc2C)c(=O)n4C)cnc1N [Example 166.1, 8-(6-Amino-5-ethoxymethyl-pyridin-3-yl)-1-(1,3-dimethyl-1H-pyrazol-4-yl)-3-methyl-1,3-dihydro-imidazo[4,5-c]quinolin-2-one]
- IC50 (PI3K alpha): 9 nM
- IC50 (PI3K beta): 37 nM
- IC50 (PI3K delta): 3 nM
- IC50 [1]: 22 nM
- IC50 [2]: 54 nM
- IC50 [3]: 57 nM

SMILES: Cn1cc(-n2c(=O)n(C)c3cnc4ccc(-c5cnc(N)c(CO)c5)cc4c32)c(Cl)n1 [Example 169.3, 8-(6-Amino-5-hydroxymethyl-pyridin-3-yl)-1-(3-chloro-1-methyl-1H-pyrazol-4-yl)-3-methyl-1,3-dihydro-imidazo[4,5-c]quinolin-2-one]
- IC50 (PI3K alpha): 5 nM
- IC50 (PI3K beta): 7 nM
- IC50 (PI3K delta): < 3 nM
- IC50 [1]: 19 nM
- IC50 [2]: 24 nM
- IC50 [3]: 41 nM

SMILES: CCN(C)c1cncc(-c2ccc3ncc4c(c3c2)n(-c2cn(C)nc2C)c(=O)n4C)c1 [Example 176, 1-(1,3-Dimethyl-1H-pyrazol-4-yl)-8-[5-(ethyl-methyl-amino)-pyridin-3-yl]-3-methyl-1,3-dihydro-imidazo[4,5-c]quinolin-2-one]
- IC50 (PI3K alpha): 17 nM
- IC50 (PI3K beta): 33 nM
- IC50 (PI3K delta): 15 nM
- IC50 [1]: < 5 nM
- IC50 [2]: 7 nM
- IC50 [3]: 48 nM

SMILES: Cc1nn(C)cc1-n1c(=O)n(C)c2cnc3ccc(-c4cncc(OC(F)F)c4)cc3c21 [Example 183, 8-(5-Difluoromethoxy-pyridin-3-yl)-1-(1,3-dimethyl-1H-pyrazol-4-yl)-3-methyl-1,3-dihydro-imidazo[4,5-c]quinolin-2-one]
- IC50 (PI3K alpha): 3 nM
- IC50 (PI3K beta): 4 nM
- IC50 (PI3K delta): 4 nM
- IC50 [1]: 23 nM
- IC50 [2]: 52 nM
- IC50 [3]: 51 nM

From patent US20140005163A1 (NOVARTIS AG, priority 2010, published 2014)
